The values below come from publication PMC7465669, “Screening of Heteroaromatic Scaffolds against Cystathionine Beta-Synthase Enables Identification of Substituted Pyrazolo[3,4-c]Pyridines as Potent and Selective Orthosteric Inhibitors” (Molecules, 2020).

This assay deals with T1, cystathionine β-synthase (CBS) (Homo sapiens, UniProt P35520).
T1 construct: full-length human CBS, GST-fusion
T1 sequence (P35520 1-551): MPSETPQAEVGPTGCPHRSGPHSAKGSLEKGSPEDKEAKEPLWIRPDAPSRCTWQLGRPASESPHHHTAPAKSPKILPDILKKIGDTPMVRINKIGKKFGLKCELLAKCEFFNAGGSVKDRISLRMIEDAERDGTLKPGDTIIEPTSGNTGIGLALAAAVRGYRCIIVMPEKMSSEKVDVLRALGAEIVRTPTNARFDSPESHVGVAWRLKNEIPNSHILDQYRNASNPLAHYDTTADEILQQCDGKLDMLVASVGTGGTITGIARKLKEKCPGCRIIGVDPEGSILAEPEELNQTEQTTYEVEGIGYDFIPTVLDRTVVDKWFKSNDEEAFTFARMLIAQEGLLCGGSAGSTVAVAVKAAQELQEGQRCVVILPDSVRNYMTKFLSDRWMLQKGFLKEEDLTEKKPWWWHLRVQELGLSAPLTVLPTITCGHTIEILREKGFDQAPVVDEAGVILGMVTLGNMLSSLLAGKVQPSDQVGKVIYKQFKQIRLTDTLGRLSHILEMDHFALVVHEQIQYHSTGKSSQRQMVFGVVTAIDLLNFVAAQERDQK
As to the kind of experiment: methylene blue H2S assay, recombinant enzyme; confirmed by AzMC assay (IC50 […]). Type of assay: biochemical.

Molecules are shown by their SMILES.

One may read the IC50 as the concentration that inhibits the measured activity by half.

On to `COc1ccc(Cn2ncc3cc(Nc4ccc(N5CCN(C)CC5)cc4)nc(N4CCN(C)CC4)c32)cc1` [compound 1, 1], for which the IC50 was found to be 11 µM.
